According to publication PMC6986909 (Nature, 2020):

How the values were obtained:
Format in all cases: biochemical
AcrIII-1 SIRV1 gp29 = target: T1, AcrIII-1 SIRV1 gp29 (Sulfolobus islandicus rod-shaped virus 1, UniProt Q8QL27); assay: degradation of unlabelled cA6, TLC under […] nm UV; details: 40 uM dimer, 450 uM cA6, MES pH 5.5, 70 °C; weak substrate, very slow
T1 sequence (Q8QL27 1-114): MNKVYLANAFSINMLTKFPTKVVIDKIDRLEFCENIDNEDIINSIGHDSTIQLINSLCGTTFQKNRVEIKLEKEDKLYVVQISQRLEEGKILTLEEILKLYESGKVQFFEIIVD

AcrIII-1 YddF = target: T2, AcrIII-1 YddF (Bacillus subtilis, UniProt P96643); assay: single-turnover cleavage of […]-labelled cA4, denaturing PAGE / TLC; details: 8 uM dimer, MES pH 6.0, 100 mM NaCl, 1 mM EDTA, 37 °C; labelled compound
T2 sequence (P96643 1-108): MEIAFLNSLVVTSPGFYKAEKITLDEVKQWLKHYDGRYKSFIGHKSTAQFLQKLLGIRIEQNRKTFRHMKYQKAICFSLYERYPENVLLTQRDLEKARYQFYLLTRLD

Crn1 Sso2081 = target: T3, Crn1 Sso2081 (Saccharolobus solfataricus, UniProt Q7LYJ6); assay: as above; details: 4 uM dimer, Tris-HCl pH 8.0, 100 mM NaCl, 1 mM EDTA, 50 °C; labelled compound
T3 sequence (Q7LYJ6 1-178): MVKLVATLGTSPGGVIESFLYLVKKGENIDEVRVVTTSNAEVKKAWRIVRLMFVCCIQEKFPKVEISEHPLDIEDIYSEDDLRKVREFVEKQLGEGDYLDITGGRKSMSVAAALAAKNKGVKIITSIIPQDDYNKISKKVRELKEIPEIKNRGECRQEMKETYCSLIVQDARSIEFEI

| SMILES | degradation of unlabelled cA6, TLC under 254 nm UV (AcrIII-1 SIRV1 gp29) | single-turnover cleavage of 32P-labelled cA4, denaturing PAGE / TLC (AcrIII-1 YddF) | single-turnover cleavage of 32P-labelled cA4, denaturing PAGE / TLC (Crn1 Sso2081) |
| --- | --- | --- | --- |
| Nc1ncnc2c1ncn2[C@@H]1O[C@@H]2COP(=O)(O)O[C@H]3[C@@H](O)[C@H](n4cnc5c(N)ncnc54)O[C@@H]3COP(=O)(O)O[C@H]3[C@@H](O)[C@H](n4cnc5c(N)ncnc54)O[C@@H]3COP(=O)(O)O[C@H]3[C@@H](O)[C@H](n4cnc5c(N)ncnc54)O[C@@H]3COP(=O)(O)O[C@H]3[C@@H](O)[C@H](n4cnc5c(N)ncnc54)O[C@@H]3COP(=O)(O)O[C@H]3[C@@H](O)[C@H](n4cnc5c(N)ncnc54)O[C@@H]3COP(=O)(O)O[C@H]2[C@H]1O [cA6] | strong preference for cA4 over cA6, with the latter degraded very slowly by comparison |  |  |
| Nc1ncnc2c1ncn2[C@@H]1O[C@@H]2COP(=O)(O)O[C@H]3[C@@H](O)[C@H](n4cnc5c(N)ncnc54)O[C@@H]3COP(=O)(O)O[C@H]3[C@@H](O)[C@H](n4cnc5c(N)ncnc54)O[C@@H]3COP(=O)(O)O[C@H]3[C@@H](O)[C@H](n4cnc5c(N)ncnc54)O[C@@H]3COP(=O)(O)O[C@H]2[C@H]1O [cA4] |  | Both proteins possess a potent ring nuclease activity, rapidly degrading cA4 | Kinetic comparison of cA4 degradation by the AcrIII-1 enzymes SIRV1 gp29 and YddF |
